This note sets out measurements from patent US20200329698A1, “COMPOSITIONS FOR ORGAN GRAFT PRESERVATION AND METHODS OF USE” (Nobilis Therapeutics, Inc., priority 2019, published 2020).

The subject of this experiment is Lewis rat lung grafts extracted after cardiac death. How it is done: Inbred adult male Lewis rats (LEW, RT1^1) weighing 225-250 g were purchased from Harlan, UK and bred in temperature- and humidity-controlled cages in a specific pathogen-free facility at the Chelsea-Westminster Campus, Imperial College London. All animal procedures were carried out in accordance with the United Kingdom Animals (Scientific Procedures) Act of 1986. For cardiac arrest model (DCD donor) in anaesthetized rats, anticoagulation was accomplished by injecting 250 U Heparin in 1 ml saline via the penile vein. Five minutes after heparinization, a laparotomy was performed through a midline incision. A thoracotomy was performed followed by induction of cardiac arrest by external compression of the heart for 5 min. After induction of cardiac arrest, the aorta was closed using a vascular clamp rostral from the heart. The thoracotomy wound was covered with gauze and kept moist with 0.9% NaCl. After 40 minutes in DCD donors, the entire graft, lung or kidney, in the donor was isolated and excised. Lung grafts were flushed through the main pulmonary artery and stored at 4° C. for 16 hours with either control UW solution or UW with Dex (0.1 nM) solution. Lung or kidney grafts were fixed in 4% parafamydehyde and paraffin. Sections of 5-μm thickness were taken from the kidney specimens and haematoxylin & eosin (H&E) staining was carried out. Lung cell morphology in each graft (10 fields in the cortex at ×20 magnifications) was evaluated by an observer blinded to the treatment using an OLYMPUS™ (Watford, UK) BX4 microscope under constant exposure level. The score for each field was calculated from the sum score of 10 areas chosen at a random. For the lung sections, the injury was categorised into Grade 0: normal appearance, negligible damage; Grade 1: mild moderate interstitial congestion and neutrophil leukocyte infiltrations; Grade 2: perivascular oedema formation, partial destruction of pulmonary architecture and moderate cell infiltration; Grade 3: moderate lung alveolar damage and intensive cell infiltration; Grade 4: severe cell infiltration and severe destruction of the pulmonary architecture. For in vivo fluorescence or DAB staining, 25-μm frozen lung sections were incubated with rabbit anti-Rip1 (1:200, SANTA CRUZ BIOTECHNOLOGY®), rabbit anti-Rip3 (1:200, SANTA CRUZ BIOTECHNOLOGY®), mouse anti-HMGB-1 (1:200, Abcam), Goat anti-TLR-4 (1:200, SANTA CRUZ BIOTECHNOLOGY®), rabbit anti-Nrf-2 (1:200, SANTA CRUZ BIOTECHNOLOGY®), mouse anti-SOD-1 (1:200, Abcam), mouse anti-NQO-1 (1:200 Abcam), rabbit anti-3-nitrotyrosine (1:200, Abcam) and rabbit anti-4-hydroxynonenal (1:200, Abcam) at 4° C. overnight. After washing with PBST, the slides were incubated with fluorochrome-conjugated secondary antibodies (MILLIPORE™, UK). For double-labelled immunofluorescence, lung samples were incubated with the first primary antibody overnight, followed by the first secondary antibody, and then the second primary antibody and the second secondary antibody. The slides were counterstained with nuclear dye DAPI and mounted with […]® Mounting Medium (Vector lab, USA). Sections were examined using an OLYMPUS™ (Watford, UK) BX4 microscope under constant exposure level. Immunofluorescence was quantified using ImageJ (National Institutes of Health, Maryland, USA) and the background was subtracted. Ten representative regions per section (in vivo) or field (in vitro) were randomly selected by an assessor blinded to the treatment groups. Values were then calculated as percentages of the mean value for naïve controls and expressed as percentage fluorescence intensity. Lung alveolar cell death was detected by the in situ TUNEL assay (MILLIPORE™) according to the manufacturer's instructions. TUNEL nuclei were visualized by green FITC fluorescence. Tumor necrosis factor-α (TNF-α) in the culture medium were detected by ELISA (Human TNF-α ELISA kits, INVITROGEN®, UK). Rat lung tissue and serum TNF-α were measured by ELISA (Rat TNF-α ELISA kits, INVITROGEN®, UK). […]

Where [1] appears, read: Dex 0.1 nM in UW at 4° C., CI 16 hr, vs vehicle.
Where [2] appears, read: Dex-saturated UW, CI 16 h, p<0.001.
Where [3] appears, read: Dex-saturated UW, CI 16 h, p<0.05.

In the case of `Cc1cccc([C@H](C)c2cnc[nH]2)c1C` [Dexmedetomidine], under setting [1], the HMGB-1 release entry was “reduction”, the “TLR-4 activation (fluorescent intensity)” value is recorded as “reduction”, the “cell death (TUNEL staining)” value was “reduced cell death” and the “concentration of HMGB-1 in lung graft tissue (ELISA)” value is recorded as “significantly reduced”. Under setting [1], the “concentration of IL-1β in lung graft tissue (ELISA)” value was “significantly reduced”, the “concentration of TNF-α in lung graft tissue (ELISA)” value is “significantly reduced”, the “expression of necroptosis marker RIP1 (fluorescent intensity)” value is reported as “significantly reduced” and the “expression of necroptosis marker RIPS (RIPK3 fluorescent intensity)” value was “significantly reduced”. Moreover, the “lung morphology (H&E, lung injury scoring)” value under setting [1] is recorded as “marked improvement in morphology”. For the same molecule, the “expression of 3-nitrotyrosine (fluorescent intensity)” value (Dex-saturated UW, CI 16 h, vs control group, p<0.001) is reported as “significant reduction”. Besides, the “expression of 4-hydroxynonenal (fluorescent intensity)” value (Dex-saturated UW, CI 16 h, vs control group, p<0.05) was “significant reduction”. Also, under setting [2], the “expression of Nrf-2 (fluorescent intensity)” value is given as “significant increase”, the “expression of SOD-1 (fluorescent intensity)” value was “significant increase” and the “lung tissue GSH/GSSG ratio” value is recorded as “significant increase”. Besides, where the note is “Dex-saturated UW, CI 16 h, p<0.01”, the “lung tissue GSSG level” value is “significant decrease”. In addition, under setting [3], the “expression of NQO-1 (fluorescent intensity)” value is “significant increase” and the “lung tissue GSH level” value was “significant increase”.
